From article PMC6522912, “Evaluation of the published kinase inhibitor set to identify multiple inhibitors of bacterial ATP-dependent mur ligases” (Journal of Enzyme Inhibition and Medicinal Chemistry, 2019)
Read-outs that look alike come from different tables or passages of the source.

Experiments:
E. coli MurC = E. coli MurC (Escherichia coli, UniProt P17952); assay: Malachite green inhibition assay, MurC; format: biochemical; conditions: 0.25 h, Table S1, PKIS screening; read-out: RA [%] at 100 µM MurC
Chain of E. coli MurC (P17952 whole entry): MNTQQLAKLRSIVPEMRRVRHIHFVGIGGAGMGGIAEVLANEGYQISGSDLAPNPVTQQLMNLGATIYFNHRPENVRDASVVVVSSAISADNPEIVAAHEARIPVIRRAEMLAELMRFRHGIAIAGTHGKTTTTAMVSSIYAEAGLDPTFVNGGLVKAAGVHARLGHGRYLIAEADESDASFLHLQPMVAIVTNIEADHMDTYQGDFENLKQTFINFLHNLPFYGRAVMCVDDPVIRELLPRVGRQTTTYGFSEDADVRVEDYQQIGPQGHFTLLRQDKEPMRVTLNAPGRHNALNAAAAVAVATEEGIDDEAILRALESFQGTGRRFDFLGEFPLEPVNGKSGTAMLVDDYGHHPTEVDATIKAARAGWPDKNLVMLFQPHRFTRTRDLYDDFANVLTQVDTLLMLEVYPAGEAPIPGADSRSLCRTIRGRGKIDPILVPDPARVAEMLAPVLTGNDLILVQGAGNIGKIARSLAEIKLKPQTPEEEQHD

E. coli MurD = E. coli MurD (Escherichia coli, UniProt P14900); assay: biochemical; conditions: 0.25 h, read-out: RA [%] at 100 µM MurD
Chain of E. coli MurD (P14900 whole entry): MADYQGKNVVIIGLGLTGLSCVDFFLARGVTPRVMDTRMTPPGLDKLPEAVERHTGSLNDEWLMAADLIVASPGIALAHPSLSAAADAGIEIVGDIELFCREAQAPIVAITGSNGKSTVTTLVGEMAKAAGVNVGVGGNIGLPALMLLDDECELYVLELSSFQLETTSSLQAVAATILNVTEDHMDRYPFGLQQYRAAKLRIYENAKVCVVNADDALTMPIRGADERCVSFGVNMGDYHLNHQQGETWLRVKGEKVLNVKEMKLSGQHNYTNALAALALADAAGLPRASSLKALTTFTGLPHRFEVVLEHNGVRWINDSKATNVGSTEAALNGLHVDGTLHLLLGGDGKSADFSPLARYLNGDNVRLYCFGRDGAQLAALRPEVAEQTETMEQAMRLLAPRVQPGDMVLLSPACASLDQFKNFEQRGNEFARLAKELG
Summary of the method: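 Orthophosphate released by E. coli MurD quantified by malachite green (Biomol green) absorbance at 650 nm after 15 min at 37 °C. Residual activity relative to DMSO-only controls.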

E. coli MurF = E. coli MurF (Escherichia coli, UniProt P11880); assay: biochemical; conditions: 0.25 h, read-out: RA [%] at 100 µM MurF
Chain of E. coli MurF (P11880 whole entry): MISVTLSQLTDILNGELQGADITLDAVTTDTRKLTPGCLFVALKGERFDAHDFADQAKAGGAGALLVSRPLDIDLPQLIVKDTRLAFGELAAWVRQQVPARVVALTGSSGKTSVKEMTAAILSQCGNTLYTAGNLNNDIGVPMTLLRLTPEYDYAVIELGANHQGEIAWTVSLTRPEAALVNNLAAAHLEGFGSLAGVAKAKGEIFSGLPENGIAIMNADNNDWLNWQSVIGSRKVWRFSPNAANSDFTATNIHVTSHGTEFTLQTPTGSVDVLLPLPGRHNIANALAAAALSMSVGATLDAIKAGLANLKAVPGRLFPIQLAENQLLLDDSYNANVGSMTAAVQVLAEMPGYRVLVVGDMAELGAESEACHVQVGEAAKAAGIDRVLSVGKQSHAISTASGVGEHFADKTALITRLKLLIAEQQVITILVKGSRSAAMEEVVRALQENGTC

C#Cc1cccc(Nc2ncnc3ccc(OCCCCNCCS(C)(=O)=O)cc23)c1 [GW680191X]
remaining activity at 100 µM (E. coli MurC): 75% | remaining activity at 100 µM (E. coli MurD; Table S1, PKIS screening): 93% | remaining activity at 100 µM (E. coli MurF; Table S1, PKIS screening): 102%

COC(=O)Nc1nc2ccc(S(=O)(=O)c3ccc(NC(=O)Nc4cc(C(F)(F)F)ccc4F)cc3)cc2[nH]1 [GW680908A]
remaining activity at 100 µM (E. coli MurC): 77% | remaining activity at 100 µM (E. coli MurD; Table S1, PKIS screening): 69% | remaining activity at 100 µM (E. coli MurF; Table S1, PKIS screening): 97%

Fc1ccc(-c2cc(-c3c[nH]nc3-c3ccccn3)ccn2)cc1 [GW680975X]
remaining activity at 100 µM (E. coli MurC): 68% | remaining activity at 100 µM (E. coli MurD; Table S1, PKIS screening): 84% | remaining activity at 100 µM (E. coli MurF; Table S1, PKIS screening): 96%

CC(C)c1ccc(-c2cc(-c3c[nH]nc3-c3ccccn3)ccn2)cc1 [GW682841X]
remaining activity at 100 µM (E. coli MurC): 78% | remaining activity at 100 µM (E. coli MurD; Table S1, PKIS screening): 85% | remaining activity at 100 µM (E. coli MurF; Table S1, PKIS screening): 88%

O=C(Nc1ccc(Oc2ccc3nc(NC(=O)c4ccco4)[nH]c3c2)cc1)Nc1cc(C(F)(F)F)ccc1F [GW683134A]
remaining activity at 100 µM (E. coli MurC): 74% | remaining activity at 100 µM (E. coli MurD; Table S1, PKIS screening): 86% | remaining activity at 100 µM (E. coli MurF; Table S1, PKIS screening): 100%

Fc1cccc(COc2ccc(Nc3ncnc4sc(-c5cccs5)cc34)cc2Cl)c1 [GW684626B]
remaining activity at 100 µM (E. coli MurC): 59% | remaining activity at 100 µM (E. coli MurD; Table S1, PKIS screening): 75% | remaining activity at 100 µM (E. coli MurF; Table S1, PKIS screening): 100%

Nc1nc(-c2ccccn2)c(-c2ccc3ncccc3n2)s1 [GW693481X]
remaining activity at 100 µM (E. coli MurC): 99% | remaining activity at 100 µM (E. coli MurD; Table S1, PKIS screening): 88% | remaining activity at 100 µM (E. coli MurF; Table S1, PKIS screening): 94%

COC(=O)Nc1nc2ccc(Oc3ccc(NC(=O)Nc4cccc(Br)c4)cc3)cc2[nH]1 [GW694234A]
remaining activity at 100 µM (E. coli MurC): 71% | remaining activity at 100 µM (E. coli MurD; Table S1, PKIS screening): 86% | remaining activity at 100 µM (E. coli MurF; Table S1, PKIS screening): 72%

COC(=O)Nc1nc2ccc(Oc3ccc(NC(=O)Nc4ccccc4)cc3)cc2[nH]1 [GW694590A]
remaining activity at 100 µM (E. coli MurC): 62% | remaining activity at 100 µM (E. coli MurD; Table S1, PKIS screening): 99% | remaining activity at 100 µM (E. coli MurF; Table S1, PKIS screening): 75%

c1ccc(-c2n[nH]cc2-c2ccnc(-c3ccc(OCCN4CCOCC4)cc3)c2)nc1 [GW695874X]
remaining activity at 100 µM (E. coli MurC): 79% | remaining activity at 100 µM (E. coli MurD; Table S1, PKIS screening): 80% | remaining activity at 100 µM (E. coli MurF; Table S1, PKIS screening): 91%

CN1CCN(CCCNc2nc3ccc(Oc4ccc(NC(=O)Nc5cc(C(F)(F)F)ccc5F)cc4)cc3[nH]2)CC1 [GW700494A]
remaining activity at 100 µM (E. coli MurC): 99% | remaining activity at 100 µM (E. coli MurD; Table S1, PKIS screening): 73% | remaining activity at 100 µM (E. coli MurF; Table S1, PKIS screening): 95%

c1cc(-c2cnn3nc(N4CCOCC4)ccc23)nc(NC2CC2)n1 [GW708336X]
remaining activity at 100 µM (E. coli MurC): 98% | remaining activity at 100 µM (E. coli MurD; Table S1, PKIS screening): 92% | remaining activity at 100 µM (E. coli MurF; Table S1, PKIS screening): 98%

Cc1nnc(-c2ccc(C)c(-c3ccc(C(=O)NCc4ccc(Cl)cc4)cc3)c2)o1 [GW708893X]
remaining activity at 100 µM (E. coli MurC): 100% | remaining activity at 100 µM (E. coli MurD; Table S1, PKIS screening): 100% | remaining activity at 100 µM (E. coli MurF; Table S1, PKIS screening): 94%

O=C(Nc1ccc(Oc2ccc3nc(NC(=O)c4ccccc4)[nH]c3c2)cc1)Nc1cc(C(F)(F)F)ccc1F [GW709042A]
remaining activity at 100 µM (E. coli MurC): 100% | remaining activity at 100 µM (E. coli MurD; Table S1, PKIS screening): 95% | remaining activity at 100 µM (E. coli MurF; Table S1, PKIS screening): 100%

c1ccc(-c2n[nH]cc2-c2ccnc(-c3ccc(OCCn4ccnc4)cc3)c2)nc1 [GW711782X]
remaining activity at 100 µM (E. coli MurC): 100% | remaining activity at 100 µM (E. coli MurD; Table S1, PKIS screening): 74% | remaining activity at 100 µM (E. coli MurF; Table S1, PKIS screening): 93%

Cc1nnc(-c2cccc(-c3ccc(C(=O)NCC4CC4)cc3)c2)o1 [GW734508X]
remaining activity at 100 µM (E. coli MurC): 89% | remaining activity at 100 µM (E. coli MurD; Table S1, PKIS screening): 100% | remaining activity at 100 µM (E. coli MurF; Table S1, PKIS screening): 74%

Cc1ccc(NC(=O)c2ccnc(N3CCCC3)c2)cc1-c1ccc(C(=O)NCC2CC2)cc1 [GW769076X]
remaining activity at 100 µM (E. coli MurC): 38% | remaining activity at 100 µM (E. coli MurD; Table S1, PKIS screening): 56% | remaining activity at 100 µM (E. coli MurF; Table S1, PKIS screening): 62%

Cc1nn(C)c2cc(N(C)c3ccnc(Nc4cccc(S(N)(=O)=O)c4)n3)ccc12 [GW770220A]
remaining activity at 100 µM (E. coli MurC): 91% | remaining activity at 100 µM (E. coli MurD; Table S1, PKIS screening): 86% | remaining activity at 100 µM (E. coli MurF; Table S1, PKIS screening): 74%

Nc1ncnc2occ(-c3ccc(NC(=O)Nc4cc(C(F)(F)F)ccc4F)cc3)c12 [GW770249A]
remaining activity at 100 µM (E. coli MurC): 60% | remaining activity at 100 µM (E. coli MurD; Table S1, PKIS screening): 83% | remaining activity at 100 µM (E. coli MurF; Table S1, PKIS screening): 63%

N#Cc1cccc(Nc2nccc(-c3cnn4ncccc34)n2)c1 [GW778894X]
remaining activity at 100 µM (E. coli MurC): 66% | remaining activity at 100 µM (E. coli MurD; Table S1, PKIS screening): 70% | remaining activity at 100 µM (E. coli MurF; Table S1, PKIS screening): 68%

CCN(CC)Cc1ccc(Nc2nccc(-c3cnn4ncccc34)n2)cc1 [GW780056X]
remaining activity at 100 µM (E. coli MurC): 78% | remaining activity at 100 µM (E. coli MurD; Table S1, PKIS screening): 78% | remaining activity at 100 µM (E. coli MurF; Table S1, PKIS screening): 88%

Nc1nc(-c2cccc(Cl)c2)c(-c2ccc3ncccc3n2)s1 [GW780159X]
remaining activity at 100 µM (E. coli MurC): 56% | remaining activity at 100 µM (E. coli MurD; Table S1, PKIS screening): 90% | remaining activity at 100 µM (E. coli MurF; Table S1, PKIS screening): 83%

NC(=O)c1cccc(Nc2nccc(Nc3cccc4[nH]ncc34)n2)c1 [GW782612X]
remaining activity at 100 µM (E. coli MurC): 86% | remaining activity at 100 µM (E. coli MurD; Table S1, PKIS screening): 92% | remaining activity at 100 µM (E. coli MurF; Table S1, PKIS screening): 77%

CN1CCN(Cc2ccc(-c3cc4ncnc(Nc5ccc(OCc6cccc(F)c6)c(Cl)c5)c4s3)o2)CC1 [GW784684X]
remaining activity at 100 µM (E. coli MurC): 20% | remaining activity at 100 µM (E. coli MurD; Table S1, PKIS screening): 52% | remaining activity at 100 µM (E. coli MurF; Table S1, PKIS screening): 56%

CCn1c(-c2nonc2N)nc2ccc(F)cc21 [GW785404X]
remaining activity at 100 µM (E. coli MurC): 100% | remaining activity at 100 µM (E. coli MurD; Table S1, PKIS screening): 88% | remaining activity at 100 µM (E. coli MurF; Table S1, PKIS screening): 79%

Nc1nc(-c2ccc(F)cc2)c(-c2ccc3ncccc3n2)s1 [GW785804X]
remaining activity at 100 µM (E. coli MurC): 100% | remaining activity at 100 µM (E. coli MurD; Table S1, PKIS screening): 82% | remaining activity at 100 µM (E. coli MurF; Table S1, PKIS screening): 78%

Cc1cccc(-c2n[nH]cc2-c2ccc3ncccc3n2)n1 [GW786460X]
remaining activity at 100 µM (E. coli MurC): 82% | remaining activity at 100 µM (E. coli MurD): 76% | remaining activity at 100 µM (E. coli MurF): 91%

Nc1ncnc2occ(-c3ccc(NC(=O)Nc4cc(C(F)(F)F)cc(C(F)(F)F)c4)cc3)c12 [GW795486X]
remaining activity at 100 µM (E. coli MurC): 36% | remaining activity at 100 µM (E. coli MurD; Table S1, PKIS screening): 57% | remaining activity at 100 µM (E. coli MurF; Table S1, PKIS screening): 71%

Nc1nccc(C#Cc2cncnc2Nc2ccc(OCc3cccc(F)c3)c(Cl)c2)n1 [GW799251X]
remaining activity at 100 µM (E. coli MurC): 33% | remaining activity at 100 µM (E. coli MurD; Table S1, PKIS screening): 50% | remaining activity at 100 µM (E. coli MurF; Table S1, PKIS screening): 0%

COc1cc(Nc2nccc(-c3cnn4ncccc34)n2)cc(OC)c1 [GW801372X]
remaining activity at 100 µM (E. coli MurC): 94% | remaining activity at 100 µM (E. coli MurD; Table S1, PKIS screening): 88% | remaining activity at 100 µM (E. coli MurF; Table S1, PKIS screening): 80%

COc1cccc(COc2cc(-n3cnc4ccccc43)sc2C(N)=O)c1 [GW804482X]
remaining activity at 100 µM (E. coli MurC): 100% | remaining activity at 100 µM (E. coli MurD; Table S1, PKIS screening): 79% | remaining activity at 100 µM (E. coli MurF; Table S1, PKIS screening): 82%

CC(C)c1ccc(Nc2nccc(-c3cnn4ncccc34)n2)cc1 [GW805758X]
remaining activity at 100 µM (E. coli MurC): 64% | remaining activity at 100 µM (E. coli MurD; Table S1, PKIS screening): 57% | remaining activity at 100 µM (E. coli MurF; Table S1, PKIS screening): 68%

c1cnn2ncc(-c3ccnc(Nc4ccc5c(c4)OCCO5)n3)c2c1 [GW806290X]
remaining activity at 100 µM (E. coli MurC): 64% | remaining activity at 100 µM (E. coli MurD; Table S1, PKIS screening): 69% | remaining activity at 100 µM (E. coli MurF; Table S1, PKIS screening): 71%

CN(c1ccc(NC(=O)Nc2ccc(OC(F)(F)F)cc2)cc1)c1ccnc(Nc2cccc(S(N)(=O)=O)c2)n1 [GW806742X]
remaining activity at 100 µM (E. coli MurC): 64% | remaining activity at 100 µM (E. coli MurD; Table S1, PKIS screening): 92% | remaining activity at 100 µM (E. coli MurF; Table S1, PKIS screening): 93%

O=C(NCC1CC1)c1ccc(-c2cccc(C(=O)NC3CC3)c2)cc1 [GW806776X]
remaining activity at 100 µM (E. coli MurC): 84% | remaining activity at 100 µM (E. coli MurD; Table S1, PKIS screening): 95% | remaining activity at 100 µM (E. coli MurF; Table S1, PKIS screening): 78%

CCOc1ccc2c(-c3ccnc(Nc4cc(OC)cc(C(F)(F)F)c4)n3)cnn2n1 [GW807982X]
remaining activity at 100 µM (E. coli MurC): 55% | remaining activity at 100 µM (E. coli MurD; Table S1, PKIS screening): 78% | remaining activity at 100 µM (E. coli MurF; Table S1, PKIS screening): 50%

COc1cccc(-n2nc(C)c3c(N/N=C(\C)c4ccncc4)ncnc32)c1 [GW809885X]
remaining activity at 100 µM (E. coli MurC): 76% | remaining activity at 100 µM (E. coli MurD; Table S1, PKIS screening): 74% | remaining activity at 100 µM (E. coli MurF; Table S1, PKIS screening): 100%
